Values of other authors, collected in patent EP1249231B1, “Pharmaceutical formulations comprising anti-inflammatory compounds and use thereof” (VESIFACT AG, priority 2001, dated 2002).

Settings: free acid; background statement

Structure (SMILES): CC(C)Cc1ccc(C(C)C(=O)O)cc1 (stereo not shown) [Ibuprofen]
- Löslichkeit in Wasser und im sauren Milieu des Magensaftes: schlecht löslich
